Laboratory results: ChEMBL document CHEMBL4219073, “Development of selective inhibitors for the treatment of rheumatoid arthritis: (R)-3-(3-(Methyl(7H-pyrrolo[2,3-d]pyrimidin-4-yl)amino)pyrrolidin-1-yl)-3-oxopropanenitrile as a JAK1-selective inhibitor” (Bioorg Med Chem, 2018)

How the values were obtained:
Mus musculus = species on record: Mus musculus; details: in vivo, po, 10 mg/kg
in vivo [1] = details: ICR, mouse, po, 10 mg/kg
in vivo [2] = details: ICR, mouse, po, 10 mg/kg; remark: listed apart in the source
CYP2C9 = CYP2C9 (Homo sapiens, UniProt P11712); experiment: in vitro
CYP2C9, sequence (P11712 whole entry): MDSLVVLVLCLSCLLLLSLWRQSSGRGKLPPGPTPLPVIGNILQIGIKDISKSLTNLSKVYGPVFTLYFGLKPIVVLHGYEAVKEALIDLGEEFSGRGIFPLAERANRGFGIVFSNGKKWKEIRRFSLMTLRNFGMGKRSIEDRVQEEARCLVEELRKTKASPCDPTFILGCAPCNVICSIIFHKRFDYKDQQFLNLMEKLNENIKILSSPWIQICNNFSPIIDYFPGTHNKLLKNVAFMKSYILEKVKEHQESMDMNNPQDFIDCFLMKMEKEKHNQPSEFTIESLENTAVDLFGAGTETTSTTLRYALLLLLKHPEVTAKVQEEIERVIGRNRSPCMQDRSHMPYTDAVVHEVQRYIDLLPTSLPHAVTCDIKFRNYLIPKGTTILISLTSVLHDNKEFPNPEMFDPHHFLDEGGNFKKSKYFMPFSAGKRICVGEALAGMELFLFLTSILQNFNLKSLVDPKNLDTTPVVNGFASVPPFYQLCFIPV
Description: Inhibition of CYP2C9 (unknown origin) assessed as residual activity at 10 uM relative to control

in vivo [3] = details: ICR, mouse, iv, 5 mg/kg
Description: AUC (0 to infinity) in ICR mouse at 5 mg/kg, iv by LC-MS/MS analysis

in vitro [4] = details: dog, microsomes
Description: Metabolic stability in dog liver microsomes assessed as parent compound remaining after 30 mins

in vitro [5] = details: rat, plasma
Description: Metabolic stability in rat plasma assessed as parent compound remaining after 30 mins

in vivo [6] = details: beagle, dog, po, 5 mg/kg
Description: AUC (0 to t) in Beagle dog at 5 mg/kg, po by LC-MS/MS analysis

in vivo [7] = details: Sprague-Dawley, rat, iv, 5 mg/kg
Description: Half life in Sprague-Dawley rat at 5 mg/kg, iv by LC-MS/MS analysis

in vivo [8] = details: Sprague-Dawley, rat, po, 10 mg/kg
CYP2D6 = CYP2D6 (Homo sapiens, UniProt P10635); experiment: in vitro
CYP2D6, sequence (P10635 whole entry): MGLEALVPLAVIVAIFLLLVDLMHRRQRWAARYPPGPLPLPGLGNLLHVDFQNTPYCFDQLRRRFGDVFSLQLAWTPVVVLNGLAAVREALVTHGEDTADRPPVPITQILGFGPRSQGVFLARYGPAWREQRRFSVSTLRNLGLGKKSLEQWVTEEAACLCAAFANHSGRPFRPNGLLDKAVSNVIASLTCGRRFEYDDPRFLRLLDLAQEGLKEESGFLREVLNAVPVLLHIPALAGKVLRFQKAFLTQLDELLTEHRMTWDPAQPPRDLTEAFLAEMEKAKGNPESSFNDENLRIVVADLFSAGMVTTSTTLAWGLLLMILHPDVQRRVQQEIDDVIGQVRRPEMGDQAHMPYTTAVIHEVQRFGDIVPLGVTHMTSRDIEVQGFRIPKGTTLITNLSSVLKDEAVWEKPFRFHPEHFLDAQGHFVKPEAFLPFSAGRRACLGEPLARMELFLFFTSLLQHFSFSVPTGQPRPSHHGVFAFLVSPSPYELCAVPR
Description: Inhibition of CYP2D6 (unknown origin) assessed as residual activity at 10 uM relative to control

in vivo [9] = details: beagle, dog, po, 5 mg/kg; remark: listed apart in the source
Description: Tmax in Beagle dog at 5 mg/kg, po by LC-MS/MS analysis

in vivo [10] = details: beagle, dog, iv, 3 mg/kg
Description: MRT in Beagle dog at 3 mg/kg, iv by LC-MS/MS analysis

in vivo [11] = details: ICR, mouse, iv, 5 mg/kg; remark: listed apart in the source
Description: MRT in ICR mouse at 5 mg/kg, iv by LC-MS/MS analysis

in vivo [12] = details: Sprague-Dawley, rat, po, 10 mg/kg; remark: listed apart in the source
in vivo [13] = details: ICR, mouse, po, 10 mg/kg; remark: listed apart in the source
in vivo [14] = details: beagle, dog, po, 5 mg/kg; remark: listed apart in the source
Description: Cmax in Beagle dog at 5 mg/kg, po by LC-MS/MS analysis

in vitro [15] = details: human, microsomes
Description: Metabolic stability in human liver microsomes assessed as parent compound remaining after 30 mins

in vivo [16] = details: beagle, dog, iv, 3 mg/kg; remark: listed apart in the source
Description: Half life in Beagle dog at 3 mg/kg, iv by LC-MS/MS analysis

in vivo [17] = details: Sprague-Dawley, rat, po, 10 mg/kg; remark: listed apart in the source
in vitro [18] = details: human, Caco-2
in vivo [19] = details: Sprague-Dawley, rat, iv, 5 mg/kg; remark: listed apart in the source
Description: MRT in Sprague-Dawley rat at 5 mg/kg, iv by LC-MS/MS analysis

Canis familiaris = species on record: Canis familiaris; details: dog, in vivo, po, 5 mg/kg
Description: Oral bioavailability in Beagle dog at 5 mg/kg by LC-MS/MS analysis

in vivo [20] = details: beagle, dog, po, 5 mg/kg; remark: listed apart in the source
Description: MRT in Beagle dog at 5 mg/kg, po by LC-MS/MS analysis

in vivo [21] = details: ICR, mouse, po, 10 mg/kg; remark: listed apart in the source
in vivo [22] = details: Sprague-Dawley, rat, iv, 5 mg/kg; remark: listed apart in the source
Description: AUC (0 to t) in Sprague-Dawley rat at 5 mg/kg, iv by LC-MS/MS analysis

in vivo [23] = details: beagle, dog, iv, 3 mg/kg; remark: listed apart in the source
in vitro [24] = details: mouse, microsomes
Description: Metabolic stability in mouse liver microsomes assessed as parent compound remaining after 30 mins

in vitro [25] = details: human, plasma
Description: Metabolic stability in human plasma assessed as parent compound remaining after 120 mins

in vivo [26] = details: Sprague-Dawley, rat, po, 10 mg/kg; remark: listed apart in the source
Description: Half life in Sprague-Dawley rat at 10 mg/kg, po by LC-MS/MS analysis

in vivo [27] = details: beagle, dog, po, 5 mg/kg; remark: listed apart in the source
Description: Half life in Beagle dog at 5 mg/kg, po by LC-MS/MS analysis

in vivo [28] = details: beagle, dog, po, 5 mg/kg; remark: listed apart in the source
Description: AUC (0 to infinity) in Beagle dog at 5 mg/kg, po by LC-MS/MS analysis

in vivo [29] = details: beagle, dog, iv, 3 mg/kg; remark: listed apart in the source
in vivo [30] = details: Sprague-Dawley, rat, po, 10 mg/kg; remark: listed apart in the source
Description: MRT in Sprague-Dawley rat at 10 mg/kg, po by LC-MS/MS analysis

in vivo [31] = details: Sprague-Dawley, rat, po, 10 mg/kg; remark: listed apart in the source
in vitro [32] = details: human, Caco-2; remark: listed apart in the source
CYP3A4 = CYP3A4 (Homo sapiens, UniProt P08684); experiment: in vitro
CYP3A4, sequence (P08684 whole entry): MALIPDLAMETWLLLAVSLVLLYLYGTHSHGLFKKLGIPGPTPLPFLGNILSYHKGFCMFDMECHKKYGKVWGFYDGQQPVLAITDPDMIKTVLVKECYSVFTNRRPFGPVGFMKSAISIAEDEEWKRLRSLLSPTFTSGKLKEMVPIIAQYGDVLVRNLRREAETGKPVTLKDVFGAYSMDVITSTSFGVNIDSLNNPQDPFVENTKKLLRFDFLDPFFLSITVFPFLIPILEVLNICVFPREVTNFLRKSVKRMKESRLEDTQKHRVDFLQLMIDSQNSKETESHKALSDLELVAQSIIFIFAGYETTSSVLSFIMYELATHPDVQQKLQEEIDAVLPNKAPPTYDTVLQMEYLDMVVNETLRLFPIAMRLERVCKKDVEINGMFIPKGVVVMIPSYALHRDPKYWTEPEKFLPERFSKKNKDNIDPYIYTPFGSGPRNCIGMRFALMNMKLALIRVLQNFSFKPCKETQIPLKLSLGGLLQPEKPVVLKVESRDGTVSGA
Description: Inhibition of CYP3A4 (unknown origin) assessed as residual activity at 10 uM relative to control

in vivo [33] = details: ICR, mouse, iv, 5 mg/kg; remark: listed apart in the source
Description: AUC (0 to t) in ICR mouse at 5 mg/kg, iv by LC-MS/MS analysis

in vitro [34] = details: human, plasma; remark: listed apart in the source
Description: Protein binding in human plasma

in vivo [35] = details: Sprague-Dawley, rat, iv, 5 mg/kg; remark: listed apart in the source
Description: AUC (0 to infinity) in Sprague-Dawley rat at 5 mg/kg, iv by LC-MS/MS analysis

in vitro [36] = details: rat, plasma; remark: listed apart in the source
Description: Protein binding in rat plasma

in vivo [37] = details: ICR, mouse, iv, 5 mg/kg; remark: listed apart in the source
Description: Half life in ICR mouse at 5 mg/kg, iv by LC-MS/MS analysis

[38] = biological target: Tyrosine-protein kinase JAK2 (Homo sapiens, UniProt O60674); details: read-out: INH
Tyrosine-protein kinase JAK2, sequence (O60674 whole entry): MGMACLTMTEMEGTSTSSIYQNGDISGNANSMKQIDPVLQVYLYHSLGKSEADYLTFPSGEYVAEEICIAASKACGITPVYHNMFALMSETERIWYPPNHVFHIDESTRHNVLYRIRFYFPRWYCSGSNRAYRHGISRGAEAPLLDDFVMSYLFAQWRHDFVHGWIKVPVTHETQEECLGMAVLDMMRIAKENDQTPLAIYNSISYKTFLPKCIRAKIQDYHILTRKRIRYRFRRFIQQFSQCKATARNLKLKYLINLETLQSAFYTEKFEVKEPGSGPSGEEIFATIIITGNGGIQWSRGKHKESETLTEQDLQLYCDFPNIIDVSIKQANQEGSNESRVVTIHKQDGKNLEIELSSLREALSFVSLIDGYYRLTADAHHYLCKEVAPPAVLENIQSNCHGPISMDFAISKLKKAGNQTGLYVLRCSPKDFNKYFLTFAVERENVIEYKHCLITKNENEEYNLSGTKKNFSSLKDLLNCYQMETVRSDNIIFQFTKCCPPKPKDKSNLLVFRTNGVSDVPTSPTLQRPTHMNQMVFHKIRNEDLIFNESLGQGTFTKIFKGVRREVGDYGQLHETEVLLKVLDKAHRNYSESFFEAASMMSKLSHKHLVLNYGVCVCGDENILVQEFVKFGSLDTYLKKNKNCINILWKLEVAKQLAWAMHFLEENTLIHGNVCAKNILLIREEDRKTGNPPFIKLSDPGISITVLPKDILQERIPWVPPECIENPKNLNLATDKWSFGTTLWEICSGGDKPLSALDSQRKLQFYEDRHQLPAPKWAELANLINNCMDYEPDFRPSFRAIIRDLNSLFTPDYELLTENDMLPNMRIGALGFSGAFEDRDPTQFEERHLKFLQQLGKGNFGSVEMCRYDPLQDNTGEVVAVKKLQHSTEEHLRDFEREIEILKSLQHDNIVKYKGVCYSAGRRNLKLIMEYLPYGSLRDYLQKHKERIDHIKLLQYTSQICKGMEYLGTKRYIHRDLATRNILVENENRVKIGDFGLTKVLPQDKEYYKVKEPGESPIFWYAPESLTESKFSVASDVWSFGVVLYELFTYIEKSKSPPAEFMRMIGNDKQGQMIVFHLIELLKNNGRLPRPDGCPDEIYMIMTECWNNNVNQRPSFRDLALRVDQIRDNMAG
Description: Inhibition of recombinant human JAK2 (808-end residues) at 10 uM in presence of ATP relative to control

CYP2C19 = CYP2C19 (Homo sapiens, UniProt P33261); experiment: in vitro
CYP2C19, sequence (P33261 whole entry): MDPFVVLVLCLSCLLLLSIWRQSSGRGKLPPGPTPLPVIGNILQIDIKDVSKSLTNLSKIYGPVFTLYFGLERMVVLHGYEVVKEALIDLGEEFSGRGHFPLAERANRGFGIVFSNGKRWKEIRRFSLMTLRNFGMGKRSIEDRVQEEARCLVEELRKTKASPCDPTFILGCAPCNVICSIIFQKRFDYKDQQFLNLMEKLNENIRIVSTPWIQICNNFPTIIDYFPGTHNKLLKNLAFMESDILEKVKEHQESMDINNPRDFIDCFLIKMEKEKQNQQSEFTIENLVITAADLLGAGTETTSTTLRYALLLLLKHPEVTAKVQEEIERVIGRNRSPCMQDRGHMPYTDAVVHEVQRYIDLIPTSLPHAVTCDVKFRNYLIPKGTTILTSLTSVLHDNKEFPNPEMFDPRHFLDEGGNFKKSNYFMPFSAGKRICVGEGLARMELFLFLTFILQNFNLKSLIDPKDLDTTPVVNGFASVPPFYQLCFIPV
Description: Inhibition of CYP2C19 (unknown origin) assessed as residual activity at 10 uM relative to control

CYP1A2 = biological target: T1, CYP1A2 (Homo sapiens, UniProt P05177); experiment: in vitro
T1 sequence (P05177 whole entry): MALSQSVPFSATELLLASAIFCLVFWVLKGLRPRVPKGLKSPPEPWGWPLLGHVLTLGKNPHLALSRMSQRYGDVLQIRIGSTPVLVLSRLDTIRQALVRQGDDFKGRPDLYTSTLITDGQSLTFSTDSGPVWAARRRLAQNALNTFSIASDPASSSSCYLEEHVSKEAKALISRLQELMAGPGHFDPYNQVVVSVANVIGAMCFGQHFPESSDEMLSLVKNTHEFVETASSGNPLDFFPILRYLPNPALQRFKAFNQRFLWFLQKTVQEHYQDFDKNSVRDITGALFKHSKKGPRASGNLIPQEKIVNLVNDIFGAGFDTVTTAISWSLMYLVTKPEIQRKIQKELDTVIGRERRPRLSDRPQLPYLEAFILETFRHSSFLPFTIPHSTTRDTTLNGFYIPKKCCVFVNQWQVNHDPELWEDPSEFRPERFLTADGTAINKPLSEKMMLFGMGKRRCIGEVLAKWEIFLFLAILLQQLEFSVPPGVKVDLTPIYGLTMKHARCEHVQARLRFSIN
Description: Inhibition of CYP1A2 (unknown origin) assessed as residual activity at 10 uM relative to control

in vivo [39] = details: ICR, mouse, po, 10 mg/kg; remark: listed apart in the source
Description: Half life in ICR mouse at 10 mg/kg, po by LC-MS/MS analysis

in vitro [40] = details: human, plasma; remark: listed apart in the source
Description: Metabolic stability in human plasma assessed as parent compound remaining after 30 mins

in vivo [41] = details: ICR, mouse, po, 10 mg/kg; remark: listed apart in the source
Description: MRT in ICR mouse at 10 mg/kg, po by LC-MS/MS analysis

in vitro [42] = details: rat, plasma; remark: listed apart in the source
Description: Metabolic stability in rat plasma assessed as parent compound remaining after 120 mins

[43] = biological target: Voltage-gated inwardly rectifying potassium channel KCNH2 (Homo sapiens, UniProt Q12809)
Voltage-gated inwardly rectifying potassium channel KCNH2, sequence (Q12809 whole entry): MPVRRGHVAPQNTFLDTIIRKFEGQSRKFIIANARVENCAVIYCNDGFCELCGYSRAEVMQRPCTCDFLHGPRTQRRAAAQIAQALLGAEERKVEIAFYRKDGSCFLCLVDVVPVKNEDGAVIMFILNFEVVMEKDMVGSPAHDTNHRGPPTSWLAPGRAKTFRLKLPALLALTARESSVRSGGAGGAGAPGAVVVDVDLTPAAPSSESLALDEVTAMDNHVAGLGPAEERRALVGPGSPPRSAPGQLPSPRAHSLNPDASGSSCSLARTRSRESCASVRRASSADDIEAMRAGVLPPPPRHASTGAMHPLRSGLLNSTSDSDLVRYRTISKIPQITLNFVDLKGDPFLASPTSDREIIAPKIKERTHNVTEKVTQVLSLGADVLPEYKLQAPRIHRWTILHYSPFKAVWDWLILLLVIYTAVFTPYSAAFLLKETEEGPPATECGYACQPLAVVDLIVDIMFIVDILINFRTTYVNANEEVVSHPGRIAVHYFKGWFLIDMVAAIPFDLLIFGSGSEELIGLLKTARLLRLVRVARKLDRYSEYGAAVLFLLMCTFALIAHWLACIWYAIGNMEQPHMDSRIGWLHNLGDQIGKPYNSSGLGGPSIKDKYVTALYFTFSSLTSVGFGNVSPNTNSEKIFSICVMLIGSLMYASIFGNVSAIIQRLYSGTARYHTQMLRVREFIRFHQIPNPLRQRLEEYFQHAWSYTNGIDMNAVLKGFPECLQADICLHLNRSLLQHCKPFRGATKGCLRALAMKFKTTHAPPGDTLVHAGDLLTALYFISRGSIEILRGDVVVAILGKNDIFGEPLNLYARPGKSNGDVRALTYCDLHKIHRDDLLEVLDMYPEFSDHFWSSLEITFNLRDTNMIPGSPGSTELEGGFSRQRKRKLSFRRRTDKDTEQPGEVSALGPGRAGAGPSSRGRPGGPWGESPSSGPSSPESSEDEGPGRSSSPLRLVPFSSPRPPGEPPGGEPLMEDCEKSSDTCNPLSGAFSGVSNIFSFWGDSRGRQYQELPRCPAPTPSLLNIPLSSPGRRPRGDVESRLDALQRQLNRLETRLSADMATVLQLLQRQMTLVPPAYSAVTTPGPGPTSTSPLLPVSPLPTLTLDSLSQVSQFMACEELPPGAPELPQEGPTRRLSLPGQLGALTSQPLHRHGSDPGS
Description: Inhibition of human ERG expressed in HEK293 cells by automated patch clamp method

in vitro [44] = details: rat, microsomes
Description: Metabolic stability in rat liver microsomes assessed as parent compound remaining after 30 mins

CN(c1ncnc2[nH]ccc12)[C@@H]1CCN(C(=O)CC#N)C1
F (Mus musculus): 190%
Cmax (in vivo [1]): 1000 ng/mL
Tmax (in vivo [2]): 0.3 h
activity at 10 µM (CYP2C9): > 100%
AUC(0-inf) (in vivo [3]): 680 ng·h/mL
remaining at 0.5 h (in vitro [4]): 92.8%
remaining at 0.5 h (in vitro [5]): > 100%
AUC(0-t) (in vivo [6]): 6400 ng·h/mL
half-life (in vivo [7]): 0.7 h
Tmax (in vivo [8]): 0.3 h
activity at 10 µM (CYP2D6): > 100%
Tmax (in vivo [9]): 1.1 h
MRT (in vivo [10]): 2.4 h
MRT (in vivo [11]): 1.4 h
AUC(0-t) (in vivo [12]): 4100 ng·h/mL
AUC(0-t) (in vivo [13]): 1900 ng·h/mL
Cmax (in vivo [14]): 1900 ng/mL
remaining at 0.5 h (in vitro [15]): 97.6%
half-life (in vivo [16]): 1.6 h
AUC(0-inf) (in vivo [17]): 4300 ng·h/mL
Papp B→A (in vitro [18]): 7.7 ×10⁻⁶ cm/s
MRT (in vivo [19]): 0.9 h
F (Canis familiaris): 180%
MRT (in vivo [20]): 3.1 h
AUC(0-inf) (in vivo [21]): 2100 ng·h/mL
AUC(0-t) (in vivo [22]): 930 ng·h/mL
AUC(0-inf) (in vivo [23]): 2200 ng·h/mL
remaining at 0.5 h (in vitro [24]): > 100%
remaining at 2 h (in vitro [25]): 99.8%
half-life (in vivo [26]): 2.1 h
half-life (in vivo [27]): 1.7 h
AUC(0-inf) (in vivo [28]): 6500 ng·h/mL
AUC(0-t) (in vivo [29]): 2100 ng·h/mL
MRT (in vivo [30]): 2.9 h
Cmax (in vivo [31]): 1900 ng/mL
Papp A→B (in vitro [32]): 3.8 ×10⁻⁶ cm/s
activity at 10 µM (CYP3A4): 98.2%
AUC(0-t) (in vivo [33]): 510 ng·h/mL
fraction unbound (in vitro [34]): 0.853
AUC(0-inf) (in vivo [35]): 950 ng·h/mL
fraction unbound (in vitro [36]): 0.823
half-life (in vivo [37]): 0.9 h
inhibition at 10 µM [38]: > 90%
activity at 10 µM (CYP2C19): 91.8%
activity at 10 µM (CYP1A2): 89.3%
half-life (in vivo [39]): 2.1 h
remaining at 0.5 h (in vitro [40]): 96.3%
MRT (in vivo [41]): 3.1 h
remaining at 2 h (in vitro [42]): > 100%
IC50 [43]: 93 µM
remaining at 0.5 h (in vitro [44]): 92.8%
